Values after ≈ are worked out from the molar mass of the structure shown. Values belong to the compound of their own block, whether it stands above or below them.
Assays:
Staphylococcus aureus = experiment: Antimicrobial activity against Staphylococcus aureus USA300 assessed as bacterial growth inhibition; assay type: functional
Bacillus subtilis = experiment: Antimicrobial activity against Bacillus subtilis assessed as bacterial growth inhibition; assay type: functional
PC-3 = experiment: Antiproliferative activity against human PC-3 cells assessed as cell growth inhibition; assay type: functional, cell-based
MCF7 = experiment: Antiproliferative activity against human MCF7 cells assessed as cell growth inhibition; assay type: functional, cell-based
HepG2 2.2.15 = experiment: Antiproliferative activity against human HepG2.2.15 cells assessed as cell growth inhibition; assay type: functional, cell-based
Hepatitis B virus [1] = experiment: Antiviral activity against Hepatitis B virus infected in human HepG2.2.15 cells assessed as inhibition of viral DNA replication by MTT assay; assay type: functional, organism-based; conditions: HepG2 2.2.15
Hepatitis B virus [2] = experiment: Antiviral activity against Hepatitis B virus infected in human HepG2.2.15 cells assessed as inhibition of HBsAg level by MTT assay; assay type: functional, organism-based; conditions: HepG2 2.2.15
Hepatitis B virus [3] = experiment: Antiviral activity against Hepatitis B virus infected in human HepG2.2.15 cells assessed as inhibition of HBeAg level by MTT assay; assay type: functional, organism-based; conditions: HepG2 2.2.15
LNCaP = experiment: Antiproliferative activity against human LNCAP cells assessed as cell growth inhibition; assay type: functional, cell-based
[4] = target: 11-beta-hydroxysteroid dehydrogenase 1 (Homo sapiens, UniProt P28845); experiment: Inhibition of human 11beta-HSD1
Sequence of 11-beta-hydroxysteroid dehydrogenase 1 (P28845 whole entry): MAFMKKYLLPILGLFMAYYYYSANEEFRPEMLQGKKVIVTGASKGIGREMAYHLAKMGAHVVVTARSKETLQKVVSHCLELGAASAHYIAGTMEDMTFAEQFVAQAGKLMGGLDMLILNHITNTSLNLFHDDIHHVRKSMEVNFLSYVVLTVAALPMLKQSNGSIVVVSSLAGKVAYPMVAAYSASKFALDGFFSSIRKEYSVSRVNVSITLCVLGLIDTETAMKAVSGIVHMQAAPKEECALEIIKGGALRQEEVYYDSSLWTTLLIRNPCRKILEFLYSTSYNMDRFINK

- MIC (Staphylococcus aureus): 168 µg/mL (≈ 286 µM)
- MIC (Bacillus subtilis): 2 µg/mL (≈ 3.4 µM)
Compound: CC(C)(O)[C@@H]1CC[C@@](C)([C@H]2CC[C@]3(C)C2[C@H](O)CC2[C@@]4(C)CC[C@H](OC(=O)C5CCNCC5)C(C)(C)C4CC[C@]23C)O1 (stereo not given in full)

- IC50 (PC-3): 45.6 µM
Compound: COc1cc(/C=C2/C[C@@]3(C)C(CC[C@]4(C)C3C[C@@H](O)C3C([C@@]5(C)CCCC(C)(C)O5)CC[C@]34C)C(C)(C)C2=O)cc(OC)c1OC (stereo not given in full)

- IC50 (MCF7): 8.62 µM
Compound: CC1(C)CCC[C@](C)(C2CC[C@]3(C)C2[C@H](O)CC2[C@@]4(C)CC[C@H](OC(=O)c5c(Cl)c(Cl)c(Cl)c(Cl)c5C(=O)O)C(C)(C)C4CC[C@]23C)O1 (stereo not given in full)

Compound: CC1(C)CCC[C@](C)(C2CC[C@]3(C)C2[C@H](O)CC2[C@@]4(C)CC[C@H](OC(=O)c5ccccc5O)C(C)(C)C4CC[C@]23C)O1 (stereo not given in full)
- IC50 (HepG2 2.2.15): 7.27 µM

- IC50 (HepG2 2.2.15): 7.27 µM
Compound: CC1(C)CCC[C@](C)(C2CC[C@]3(C)C2[C@H](O)CC2[C@@]4(C)CC[C@H](OC(=O)c5cccs5)C(C)(C)C4CC[C@]23C)O1 (stereo not given in full)
- IC50 (Hepatitis B virus [1]): 16.5 µM
- IC50 (Hepatitis B virus [2]): 30.8 µM
- IC50 (Hepatitis B virus [3]): 18.2 µM

- IC50 (LNCaP): < 38.9 µM
- IC50 (PC-3): 35.4 µM
Compound: CC1(C)CCC[C@](C)(C2CC[C@]3(C)C2[C@H](O)CC2[C@@]4(C)C/C(=C/c5ccc(C(F)(F)F)cc5)C(=O)C(C)(C)C4CC[C@]23C)O1 (stereo not given in full)

- IC50 (LNCaP): < 38.9 µM
- IC50 (PC-3): 11.7 µM
Compound: CC1(C)CCC[C@](C)(C2CC[C@]3(C)C2[C@H](O)CC2[C@@]4(C)C/C(=C/c5ccc(O)cc5)C(=O)C(C)(C)C4CC[C@]23C)O1 (stereo not given in full)

- MIC (Staphylococcus aureus): 8 µg/mL (≈ 13.6 µM)
- MIC (Bacillus subtilis): 2 µg/mL (≈ 3.4 µM)
Compound: CC(C)(O)[C@H]1CC[C@@](C)([C@H]2CC[C@]3(C)C2[C@H](O)CC2[C@@]4(C)CC[C@H](OC(=O)C5CCNCC5)C(C)(C)C4CC[C@]23C)O1 (stereo not given in full)

- IC50 [4]: 0.034 µM
Compound: CC(=O)O[C@@H]1CC2[C@@]3(C)CC[C@H](O)C(C)(C)C3CC[C@@]2(C)[C@]2(C)C(=O)C=CC12 (stereo not given in full)

- IC50 (LNCaP): < 38.9 µM
- IC50 (PC-3): 47.3 µM
Compound: CC1(C)CCC[C@](C)(C2CC[C@]3(C)C2[C@H](O)CC2[C@@]4(C)C/C(=C/c5cccs5)C(=O)C(C)(C)C4CC[C@]23C)O1 (stereo not given in full)

- IC50 (HepG2 2.2.15): 7.27 µM
Compound: CC1(C)CCC[C@](C)(C2CC[C@]3(C)C2[C@H](O)CC2[C@@]4(C)CC[C@H](OC(=O)c5cc(O)c(O)c(O)c5)C(C)(C)C4CC[C@]23C)O1 (stereo not given in full)

- IC50 (HepG2 2.2.15): 7.27 µM
Compound: CC1(C)CCC[C@](C)(C2CC[C@]3(C)C2[C@H](O)CC2[C@@]4(C)CC[C@H](OC(=O)CCCC(=O)O)C(C)(C)C4CC[C@]23C)O1 (stereo not given in full)

— ChEMBL document CHEMBL5233223, “Dammarane-type leads panaxadiol and protopanaxadiol for drug discovery: Biological activity and structural modification” (Eur J Med Chem, 2020)
